Values of other authors as cited in patent publication US12582654B2, “Cyano-substituted pyridine and cyano-substituted pyrimidine compound and preparation method therefor and application thereof” (BEIJING SCITECH-MQ PHARMACEUTICALS LIMITED, priority 2019, dated 2026).

How the values were obtained:
[1] = tested on: FGF19 gene-amplified cells; details: cited from earlier work
[2] = mouse and monkey animal models; cited from earlier work

C=CC(=O)Nc1cc(N2CCN(CC)CC2)ccc1Nc1cc(N(C)C(=O)Nc2c(Cl)c(OC)cc(OC)c2Cl)ncn1 [Example H3B6527]
antitumor activity against FGF19 gene-amplified cells [1]: strong antitumor activity | bile acid-related adverse effects [2]: without bile acid-related adverse effects
